This note sets out measurements from patent US8841276B2, “Fulvene and fulvalene analogs and their use in treating cancers” (Emory University, priority 2007, dated 2014).

Series [1] concerns light-induced retinal function loss. More on the design: species or system Balb-C mice. The note with it: mouse, in vivo. Here is the method: Balb-C mice were exposed to dim (20 lux) or bright (10,000 lux) white light for 6 hours. Mice were injected with Fulvene-5, a triphenylmethane that inhibits NADPH oxidase, dissolved in vehicle (intralipid-DMSO) or vehicle alone. Intraperitoneal injections were given daily for two weeks. Electroretinograms (ERGs) were taken 0, 7, and 14 days following light exposure. Mice were exposed to either dim light (control) or bright light of an intensity that causes retinal degeneration (Light Induced Retinal Degeneration; LIRD). This is a classic rodent model of retinal degeneration. For each lighting condition, half the animals were injected with vehicle and the other half were injected with Fulvene 5. Electroretinograms (ERGs) of the treated mice were measured at one week post-exposure. An ERG is a measure of the change in electrical potential across the eyeball in response to a flash of light, and is used as an indication of retinal function.

The target in another series is T1, Nox2 enzyme (Homo sapiens, UniProt P04839).
T1 construct: expressed in transfected cells; host or cells: Cos-phox cells (COS-7 derived, per the cited Price et al. 2002; own knowledge)
T1 sequence (P04839 2-570 limits assumed): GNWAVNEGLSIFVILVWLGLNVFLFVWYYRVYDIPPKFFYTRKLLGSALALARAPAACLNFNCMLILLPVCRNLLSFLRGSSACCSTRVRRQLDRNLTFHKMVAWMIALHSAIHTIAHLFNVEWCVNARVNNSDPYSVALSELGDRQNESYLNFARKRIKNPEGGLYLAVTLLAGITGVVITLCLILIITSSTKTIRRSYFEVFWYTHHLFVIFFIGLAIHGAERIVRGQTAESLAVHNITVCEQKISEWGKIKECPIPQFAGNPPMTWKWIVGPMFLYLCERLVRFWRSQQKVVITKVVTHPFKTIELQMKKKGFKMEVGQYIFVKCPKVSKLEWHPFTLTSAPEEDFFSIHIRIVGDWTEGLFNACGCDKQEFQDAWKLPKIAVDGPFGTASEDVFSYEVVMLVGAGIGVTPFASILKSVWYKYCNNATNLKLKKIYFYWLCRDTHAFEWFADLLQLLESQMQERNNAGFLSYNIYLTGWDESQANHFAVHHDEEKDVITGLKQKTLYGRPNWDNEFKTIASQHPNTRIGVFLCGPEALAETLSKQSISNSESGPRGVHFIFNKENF
T1 sequence (P13498 2-195 partner limits assumed): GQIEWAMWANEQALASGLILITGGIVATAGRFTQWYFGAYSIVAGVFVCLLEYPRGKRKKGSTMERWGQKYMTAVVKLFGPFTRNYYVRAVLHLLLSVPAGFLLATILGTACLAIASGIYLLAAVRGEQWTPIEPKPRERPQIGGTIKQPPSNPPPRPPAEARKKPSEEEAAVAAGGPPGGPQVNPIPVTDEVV
As to the kind of experiment: Inhibition of Nox2 enzyme: H2O2 production in PMA-stimulated Cos-phox cells (homovanillic acid assay). It is filed as cell-based. The note with it: 1 μM, 5 μM, or 20 μM, FIG. 1. The method, then: Various test compounds were examined for activity against Nox2 enzyme by determining hydrogen peroxide (H2O2) production in phorbol 12-myristate 13-acetate (PMA)-stimulated Cos-phox cells treated with different concentrations of vehicle control or a test compound listed in Table 1.
Cos-phox cells have been described previously in Price et al., Blood, 99: 2653-61 (2002), which is incorporated herein by reference.
H2O2 release was measured using the homovanillic acid assay as described previously in Martyn et al., Cellular Signalling, 18:69-82 (2006) and Perry et al., J. Invest. Dermatol., 126:2316-22 (2006), which are incorporated herein by reference. Briefly, 1.5-1.75×10^5 cells/well of a 12-well plate were seeded with Cos-phox cells. The following day, cells were washed once with Hank's balanced salt solution, stimulated with […] phorbol 12-myristate 13-acetate (PMA), and then preincubated for 15 minutes with either vehicle control or different concentrations (i.e., 1 μM, 5 μM, or 20 μM) of test compound no. 8, 10, 15, 16, 17, or 18 in 1 ml of media. The cells were then washed once with Hank's balanced salt solution. Vehicle control or different concentrations of test compound no. […] Fluorescence was read on a BioTek Synergy HT (BioTek Instruments Inc., Winooski, Vt., CA) with an excitation of 320 nm and emission of 440 nm. […]

`Cc1[nH]cnc1C=C1C=CC=C1` [Test compound 10, 4-(cyclopenta-2,4-dienylidinemethyl)-5-methyl-1H-imidazole]: the “Suppression of ERG b-wave amplitude” value in series [1] is reported as “no suppression of ERG amplitude”. Further, in series [1] (ip), the “Effect of bright light exposure on retinal function as measured by ERG” value is on record as “precluded the damaging effects of bright light exposure on retinal function”.
Turning to `CN(C)C=C1C=CC=C1` [compound 8], the “Inhibition of Nox2 enzyme (production of H2O2 relative to untreated control)” value on Nox2 enzyme is “inhibited Nox2 enzyme in a dose-dependent manner”.
